{"source": "patent US6946588B2", "about": "“Nucleic acid encoding a modified threonine deaminase and methods of use” (Monsanto Technology LLC, priority 1996, dated 2005)", "molecules": {"B1": {"name": "PhbA: A. eutrophus PhbA β-ketothiolase obtained from E. coli DH5α transformed with pMON25636 (protein, UniProt P14611 1-393, looked up)", "Acetyl-CoA acetyltransferase": "MTDVVIVSAARTAVGKFGGSLAKIPAPELGAVVIKAALERAGVKPEQVSEVIMGQVLTAGSGQNPARQAAIKAGLPAMVPAMTINKVCGSGLKAVMLAANAIMAGDAEIVVAGGQENMSAAPHVLPGSRDGFRMGDAKLVDTMIVDGLWDVYNQYHMGITAENVAKEYGITREAQDEFAVGSQNKAEAAQKAGKFDEEIVPVLIPQRKGDPVAFKTDEFVRQGATLDSMSGLKPAFDKAGTVTAANASGLNDGAAAVVVMSAAKAKELGLTPLATIKSYANAGVDPKVMGMGPVPASKRALSRAEWTPQDLDLMEINEAFAAQALAVHQQMGWDTSKVNVNGGAIAIGHPIGASGCRILVTLLHEMKRRDAKKGLASLCIGGGMGVALAVERK", "modifications": "expressed in E. coli", "notes": "A. eutrophus PhbA β-ketothiolase obtained from E. coli DH5α transformed with pMON25636"}}, "key": {"BktB β-ketothiolase": {"target": "BktB β-ketothiolase (Cupriavidus necator, UniProt Q0KBP1)", "sequence (Q0KBP1 2-394 limits assumed)": "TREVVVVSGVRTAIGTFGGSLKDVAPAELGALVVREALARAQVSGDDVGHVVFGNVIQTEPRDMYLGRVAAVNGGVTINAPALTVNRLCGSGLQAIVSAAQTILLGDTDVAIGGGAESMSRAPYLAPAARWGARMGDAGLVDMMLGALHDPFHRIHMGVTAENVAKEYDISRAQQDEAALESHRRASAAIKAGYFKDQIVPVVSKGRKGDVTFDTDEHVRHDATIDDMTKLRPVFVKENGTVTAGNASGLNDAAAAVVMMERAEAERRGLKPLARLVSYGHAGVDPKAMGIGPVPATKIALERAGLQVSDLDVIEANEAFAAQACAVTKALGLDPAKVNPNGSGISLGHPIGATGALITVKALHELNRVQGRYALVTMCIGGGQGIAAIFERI", "assay": "Thiolysis kinetics of purified BktB β-ketothiolase", "details": "25° C.", "protocol": "To enhance further our understanding of the kinetic characteristics of BktB β-ketothiolase, a thorough kinetic analysis of the enzyme's thiolysis activity was conducted using purified protein. The assay to determine the kinetic parameters Km and Vmax for βketobutyryl-CoA (C4), β-ketovaleryl-CoA (C5), and β-ketocaproyl-CoA (C6), was performed at 25° C. by the in situ generation of the β-keto compounds from their corresponding trans-2,3-enoyl-CoAs essentially as described by Haywood et al. (1988). Utilization of variable substrate concentrations permitted the determination of the descriptive kinetic parameters of the β-ketothiolase. Kinetic rates were determined only at fixed substrate concentrations in the Haywood et al. communication.\nPurified BktB protein was prepared by growing E. coli […] transformed with pMON25754 in LB broth containing ampicillin (100μg/ml) overnight at 37° C. Cells were then harvested by centrifugation, and the pellet was resuspended in 50 mM KPi and 5% glycerol, sonicated, and the sonicate centrifuged to remove cellular debris. The cell extract was desalted using a PD-10 column (Pharmacia), and proteins resolved using a Pharmacia FPLC system and MonoQ anion-exchange column (Pharmacia). Buffer A was 10 mM Tris buffer, pH 7.8, plus 1 mM DTT; buffer B was buffer A plus 1 M KCl. The gradient was 0 to 10% B in 10 min, then to 35% B in 40 min. The flow rate was 1 ml/min, and the resolved proteins were collected at the rate of 1 ml/fraction. […] The enzyme was stored in 10 mM Tris-HCl, pH 7.8, 1 mM DTT, 50% glycerol at −20° C.\nThe C5 and C6 enoyl-CoAs were synthesized according to Schulz (1974) and purified using semi-prep C8-reverse-phase HPLC as described above for β-ketovaleryl-CoA. βketobutyryl-CoA (acetoacetyl-CoA) was purchased from Sigma (St. Louis, Mo.). The assay mixture (1 ml final volume) contained 150 mM EPPS, pH 8.0, 50 mM MgCl2, 1.5 mM pyruvate, 0.4 mM NAD+, and a coupling enzyme cocktail of three units crotonase, five units β-hydroxyacyl-CoA dehydrogenase, and 10 units lactic dehydrogenase. The enoyl-CoA was added to this mixture and the absorbance at 304 nm was monitored until it reached a plateau (typically about 5 min). CoA was added to this mixture, followed by BktB β-ketothiolase to initiate the reaction. The decrease in absorbance at 304 nm due to the thiolysis of the β-ketoacyl-CoA was utilized as a direct measure of activity. Extinction coefficients to convert absorbance units to μmol of product were 19.5, 12.2, and 14.0 cm^−1 mM^−1 for β-ketobutyryl-CoA, β-ketovaleryl-CoA, and β-ketocaproyl-CoA, respectively. β-ketoacyl-CoA concentration was varied from […] (CoA was fixed at 200 μM), and CoA concentration was varied from 20 to 400 μM (β-ketocaproyl-CoA was fixed at 60 μM) for determining kinetic parameters for β-ketoacyl-CoA and CoA, respectively. Reaction rates were calculated in the steady-state within the first minute following initiation. All data were fitted to the normal Michaelis-Menten equation using a non-linear regression analysis."}, "[1]": {"tested_on": "A. eutrophus PhbA and BktB β-ketothiolases", "assay": "β-Ketothiolase condensation assay with 1-14C-acetyl-CoA (PhbA, BktB)", "format": "biochemical", "details": "0.30 mM acetyl-CoA", "source_text": "As noted above, A. eutrophus can produce P(3HB-co-3HV) copolymer when provided with an appropriate C5 precursor. […] One of these β-ketothiolases, designated BktB herein, was encoded on plasmid pBK6. A. eutrophus BktB was obtained from E. coli DH5α transformed with plasmid pMON25754. pMON25754 was produced from the A. eutrophus pBK6 clone (Slater et al., 1988) by deleting a 5.0 kb XhoI fragment (there is an additional XhoI site approximately 5.0 kb 5′ to the XhoI site shown in FIG. 1 of Slater et al.). The pBK6 clone was produced by Slater et al. (1988) from A. eutrophus H16, i.e., ATCC accession number 17699, which is publicly available from the American Type Culture Collection, 12301 Parklawn Drive, Rockville, Md. 20852. BktB was overexpressed from its native promoter on the high copy plasmid pMON25754 by growing the cells overnight at 37° C. to stationary phase in LB broth containing ampicillin (100 μg/ml). A. eutrophus PhbA was obtained from E. coli DH5α transformed with pMON25636 (FIG. 20) by growing the cells at 37° C. in LB broth containing ampicillin (100 μg/ml) to early log phase and then inducing with IPTG. Cells were harvested after two hours of further growth.\nThe activity of β-ketothiolases can be assayed in both the condensation and thiolysis directions. However, condensation activity for products that are the result of a mixed condensation of acetyl-CoA and a longer chain acyl-CoA are difficult to measure. This is due to the difficulty in distinguishing between acetoacetyl-CoA, the product of condensing two acetyl-CoA molecules, and the mixed condensation reaction product, both of which form simultaneously. To date, condensation assays have been spectrophotometrically-based, but these are valid only when there is a single acyl-CoA substrate present (i.e., acetyl-CoA) since they cannot discriminate between the products formed. The assay described below represents the first reported assay that permits complete quantitation of all condensation products regardless of the nature of starting substrates.\nβ-ketothiolase assays designed to measure the condensation activity with acetyl-CoA plus either propionyl-CoA or butyryl-CoA were performed using 1-^14C-labelled acetyl-CoA. Since the equilibrium for the reaction lies heavily toward the starting acyl-CoAs rather than the condensed β-ketoacyl-CoA product, the latter was “pulled” to the corresponding β-hydroxyacyl-CoA using NADH and β-ketoacyl-CoA dehydrogenase. In addition, to avoid the strong feedback inhibition of β-ketothiolase by free CoA, each assay solution contained 5,5′-dithio-bis(2-nitrobenzoic acid) (DTNB) to trap chemically the free CoA produced by the reaction.\nThe condensation assay mixture (0.5 ml final volume) contained 100 mM KPi, pH 7.8, 0.5 mM NADH, 0.30 mM 1-^14C-acetyl-CoA (0.15 μCi), 5 units β-ketoacyl-CoA dehydrogenase, 0.5 mM DTNB, and variable propionyl- or butyryl-CoA as indicated in Table 5. The reaction was initiated by the addition of β-ketothiolase. Following 20 minutes at 30° C., each reaction mixture was quenched by the addition of 25 μl of 10% formic acid. Thirty μl of 25% H2SO4 were added to 200 μl of quenched reaction mix; this mixture was then incubated at 70° C. for 24 hours to hydrolyze all CoA thioesters to their free acids. Sixty μl of 5 M sodium formate were added to the sample to neutralize the pH, followed by analysis of a 130 μl aliquot using C18-reverse-phase HPLC (0.5×25 cm column). Detection and quantitation were carried out by monitoring flow-through with a Radiomatic flow detector. A gradient elution was employed using aqueous 1% acetic acid (solvent A) and acetonitrile (solvent B). […]"}}, "data": [{"molecule": "CC(C)(COP(=O)(O)OP(=O)(O)OC[C@H]1O[C@@H](n2cnc3c(N)ncnc32)[C@H](O)[C@@H]1OP(=O)(O)O)[C@@H](O)C(=O)NCCC(=O)NCCS", "note": "[CoA, coenzyme A]", "values": [{"measurement": "Vmax", "setting": "BktB β-ketothiolase; β-ketocaproyl-CoA fixed at 60 μM", "result": "98 ± 3", "unit": "u/mg"}]}, {"molecule": "CCCC(=O)CC(=O)SCCNC(=O)CCNC(=O)[C@H](O)C(C)(C)COP(=O)(O)OP(=O)(O)OC[C@H]1O[C@@H](n2cnc3c(N)ncnc32)[C@H](O)[C@@H]1OP(=O)(O)O", "note": "[B-ketocaproyl-CoA]", "values": [{"measurement": "Km", "setting": "BktB β-ketothiolase; CoA fixed at 200 μM", "result": "6 ± 0.7", "unit": "µM"}, {"measurement": "Vmax", "setting": "BktB β-ketothiolase; CoA fixed at 200 μM", "result": "103 ± 3", "unit": "u/mg"}]}, {"molecule": "CCC(=O)CC(=O)SCCNC(=O)CCNC(=O)[C@H](O)C(C)(C)COP(=O)(O)OP(=O)(O)OC[C@H]1O[C@@H](n2cnc3c(N)ncnc32)[C@H](O)[C@@H]1OP(=O)(O)O", "note": "[B-ketovaleryl-CoA]", "values": [{"measurement": "Km", "setting": "BktB β-ketothiolase; CoA fixed at 200 μM", "result": "15 ± 1", "unit": "µM"}, {"measurement": "Vmax", "setting": "BktB β-ketothiolase; CoA fixed at 200 μM", "result": "236 ± 8", "unit": "u/mg"}]}, {"molecule": "CC(=O)CC(=O)SCCNC(=O)CCNC(=O)[C@H](O)C(C)(C)COP(=O)(O)OP(=O)(O)OC[C@H]1O[C@@H](n2cnc3c(N)ncnc32)[C@H](O)[C@@H]1OP(=O)(O)O", "note": "[B-ketobutyryl-CoA]", "values": [{"measurement": "Km", "setting": "BktB β-ketothiolase; CoA fixed at 200 μM", "result": "37 ± 3", "unit": "µM"}, {"measurement": "Vmax", "setting": "BktB β-ketothiolase; CoA fixed at 200 μM", "result": "122 ± 5", "unit": "u/mg"}]}, {"molecule": "B1", "values": [{"measurement": "% Turnover C4 Product", "setting": "[1]; propionyl-CoA 0 mM", "result": 16.9, "unit": "%"}, {"measurement": "% Turnover C4 Product", "setting": "[1]; propionyl-CoA 0.6 mM", "result": 13.5, "unit": "%"}, {"measurement": "% Turnover C5 Product", "setting": "[1]; propionyl-CoA 0.6 mM", "result": 0, "unit": "%"}, {"measurement": "% Turnover C4 Product", "setting": "[1]; propionyl-CoA 1.2 mM", "result": 10.3, "unit": "%"}, {"measurement": "% Turnover C5 Product", "setting": "[1]; propionyl-CoA 1.2 mM", "result": 0, "unit": "%"}, {"measurement": "% Turnover C4 Product", "setting": "[1]; propionyl-CoA 2.4 mM", "result": 7.0, "unit": "%"}, {"measurement": "% Turnover C5 Product", "setting": "[1]; propionyl-CoA 2.4 mM", "result": 0, "unit": "%"}]}]}
